# Source: patent US20250262214A1, “INTERMITTENT DOSING REGIMEN FOR AZENOSERTIB IN TREATING CANCER” (Zeno Management, Inc., priority 2022, published 2025)
# Test system: MDA-MB-468 triple negative breast cancer tumor model
# Assay: MDA-MB-468 triple negative breast cancer tumor model, tumor growth inhibition
# Format: in vivo
# Details: niraparib single agent, 50 mg/kg
# Method: In vivo exploration of dose and schedule of Azenosertib and PARPi (niraparib, talazoparib) including exploration of alternating dosing was evaluated.
smiles,measurement,value
"NC(=O)c1cccc2cn(-c3ccc([C@@H]4CCCNC4)cc3)nc12 [niraparib, reference compound]",tumor growth inhibition (TGI),47.7%
